Experiment [1] addresses T1, Btk (Homo sapiens, UniProt Q06187).
T1 construct: purified from insect cells as a full-length construct containing a N-terminal 6X-His tag; His6 (N); made in house; host or cells: insect cells (Method C)
The experiment in a line: Btk in vitro inhibitory activity (one of Method A TR-FRET, Method B electrophoretic mobility shift, Method C radiometric filter binding). It counts as biochemical. The protocol:
Example 62a: Btk In Vitro Inhibitory Activity (Method A)
Btk kinase activity is determined using a time-resolved fluorescence resonance energy transfer (TR-FRET) methodology. Measurements are performed in a reaction volume of 50 μL using 96-well assay plates. […] The reaction is quenched by the addition of 1.2 equivalents of EDTA (relative to divalent cation) in 25 μL of 1× Lance buffer (Perkin-Elmer). Streptavidin-APC (Perkin-Elmer) and Eu-labeled p-Tyr100 antibody (Perkin-Elmer) in 1× Lance buffer are added in a 25 μL volume to give final concentrations of 100 nM and 2.5 nM, respectively, and the mixture is allowed to incubate for one hour. The TR-FRET signal is measured on a multimode plate reader with an excitation wavelength (λEx) of 330 nm and detection wavelengths (λEm) of 615 and 665 nm. Activity is determined by the ratio of the fluorescence at 665 nm to that at 615 nm. For each compound, enzyme activity is measured at various concentrations of compound. Negative control reactions are performed in the absence of inhibitor in replicates of six, and two no-enzyme controls are used to determine baseline fluorescence levels. Inhibition constants, Ki(app), were obtained using the program BatchKi (Kuzmic et al. (2000), Anal. Biochem. 286:45-50). IC50s are obtained according to the equation:
IC50={Ki(app)/(1+[ATP]/Km^ATP)}+[E]total/2;
For all kinases, [ATP]=Km^ATP, [Btk]total=0.5 nM and [Lck]total=6 nM.
Example 62b: Btk In Vitro Inhibitory Activity (Method B)
Kinase activity is measured in vitro using electrophoretic mobility shift assay. The kinase reactions are assembled in a total volume of 25 μL in 384 well plates. The reactions comprise: BTK enzyme (1 nM, N-terminal His6-tagged, recombinant, full-length, human BTK purified from baculovirus Sf21 insect cell system, 293HEK, or other suitable source), inhibitor, ATP, fluorescently labeled peptide substrate (1 μM, FAM-GEEPLYWSFPAKKK-NH2) in a reaction buffer composed of 100 mM HEPES, pH7.5, 5 mM MgCl2 1 mM DTT, 0.1% bovine serum albumin, 0.01% Triton X-100, and 1% DMSO. The reaction is incubated and is quenched by the addition of termination buffer (100 mM HEPES, pH 7.5, 0.01% Triton X-100, 30 mM EDTA). The terminated reactions are analyzed using a 12 channel LabChip® 3000 microfluidic detection instrument (Caliper Life Sciences). The enzymatic phosphorylation of the peptide results in a change in net charge, enabling electrophoretic separation of product from substrate peptide. As substrate and product peptides are separated, two peaks of fluorescence are observed. Change in the relative fluorescence intensity of the substrate and product peaks is the parameter measured, reflecting enzyme activity. In the presence of an inhibitor, the ratio between product and substrate is altered: the signal of the product decreases, while the signal of the substrate increases.
Activity in each sample is determined as the product to sum ratio (PSR):P/(S+P), where P is the peak height of the product peptide and S is the peak height of the substrate peptide. For each compound, enzyme activity is measured at various concentrations (12 concentrations of compound spaced by 3× dilution intervals). Negative control samples (0%—inhibition in the absence of inhibitor) and positive control samples (100%—inhibition, in the presence of 20 mM EDTA) are assembled in replicates of four and are used to calculate %—inhibition values for each inhibitor at each concentration. Percent inhibition (Pinh) is determined using following equation:
Pinh=(PSR0%−PSRinh)/(PSR0%−PSR100%)*100, where PSRinh is the product sum ratio in the presence of inhibitor, PSR0% is the average product sum ration in the absence of inhibitor and PSR100% is the average product sum ratio in 100%—inhibition control samples.
The IC50 values of inhibitors are determined by 4 parameter sigmoidal dose-response model fitting of the inhibition curves (Pinh versus inhibitor concentration) using XLfit 4 software. […]
In general terms: Mobility shift assays separate free from complexed probe on a gel.

Experiment [2] addresses T2, TEC (Homo sapiens, UniProt P42680).
T2 sequence (P42680 1-631): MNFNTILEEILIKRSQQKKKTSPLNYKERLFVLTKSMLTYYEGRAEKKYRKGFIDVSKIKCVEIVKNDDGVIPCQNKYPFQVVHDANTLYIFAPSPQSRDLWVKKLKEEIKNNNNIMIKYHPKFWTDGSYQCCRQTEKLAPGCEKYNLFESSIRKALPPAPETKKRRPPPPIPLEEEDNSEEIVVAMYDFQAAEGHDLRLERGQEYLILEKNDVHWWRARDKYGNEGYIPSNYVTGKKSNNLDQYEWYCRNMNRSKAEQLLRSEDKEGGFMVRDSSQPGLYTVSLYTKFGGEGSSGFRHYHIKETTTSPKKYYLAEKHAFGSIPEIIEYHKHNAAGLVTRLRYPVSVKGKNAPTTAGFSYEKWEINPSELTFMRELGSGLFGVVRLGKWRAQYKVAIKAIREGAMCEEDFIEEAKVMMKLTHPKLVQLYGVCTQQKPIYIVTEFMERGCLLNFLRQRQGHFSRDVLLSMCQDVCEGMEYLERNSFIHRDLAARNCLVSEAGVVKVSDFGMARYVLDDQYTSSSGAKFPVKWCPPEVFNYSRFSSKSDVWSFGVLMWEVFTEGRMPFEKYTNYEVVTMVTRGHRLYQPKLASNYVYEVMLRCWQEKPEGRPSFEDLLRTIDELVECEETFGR
The experiment in a line: Inhibition of a panel of kinases (in vitro HotSpot kinase assay, 33P-ATP, 1 μM ATP). Type of experiment: biochemical. Conditions: for IC50: HotSpot kinase assay, 1 μM ATP; for TEC/Btk: ratio of TEC IC50 to Btk IC50 (selectivity). The method, then:
Example 63: Inhibition of a Panel of Kinases The degree of inhibition of a panel of kinases is determined using the in vitro HotSpot kinase assay (purified enzymes, ^33P-ATP, an appropriate substrate and 1 μM ATP).

[3] abbreviates: wild-type Btk, read-out: Btk-WT IC50.

Results on eleven molecules are retold here after patent publication US20180194762A1 (Pharmacyclics LLC, priority 2017, published 2018).

Each structure is given as a SMILES string. Like-named read-outs stand apart in the source and are kept apart here.

T1 sequence (Q06187 whole entry): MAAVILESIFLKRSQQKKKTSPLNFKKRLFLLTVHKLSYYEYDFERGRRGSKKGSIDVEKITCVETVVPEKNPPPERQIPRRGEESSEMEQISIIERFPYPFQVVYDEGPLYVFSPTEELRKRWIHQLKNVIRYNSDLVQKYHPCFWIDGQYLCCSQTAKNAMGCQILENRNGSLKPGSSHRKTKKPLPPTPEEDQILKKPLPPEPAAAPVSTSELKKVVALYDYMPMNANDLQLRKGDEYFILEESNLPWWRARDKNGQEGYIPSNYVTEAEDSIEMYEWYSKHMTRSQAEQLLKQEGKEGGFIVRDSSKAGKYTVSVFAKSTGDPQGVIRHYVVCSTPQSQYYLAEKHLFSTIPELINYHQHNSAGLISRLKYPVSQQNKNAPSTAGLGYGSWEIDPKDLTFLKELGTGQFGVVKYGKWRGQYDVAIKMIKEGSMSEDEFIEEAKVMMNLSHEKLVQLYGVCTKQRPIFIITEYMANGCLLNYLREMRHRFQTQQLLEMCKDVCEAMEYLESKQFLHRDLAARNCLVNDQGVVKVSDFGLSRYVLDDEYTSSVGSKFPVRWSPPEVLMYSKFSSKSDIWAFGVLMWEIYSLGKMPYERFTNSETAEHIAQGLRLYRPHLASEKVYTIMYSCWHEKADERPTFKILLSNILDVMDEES

The term IC50 denotes the point on the concentration scale where inhibition reaches its midpoint. Consider `C[C@H](NC(=O)c1ccc(C(C)(C)C)cc1)c1ccc(-c2ccnc3[nH]nc(N[C@@H]4CCNC4)c23)cc1` [Example 91, 4-tert-butyl-N-[(1S)-1-[4-(3-{[(3R)-pyrrolidin-3-yl]amino}-1H-pyrazolo[3,4-b]pyridin-4-yl)phenyl]ethyl]benzamide], for which the IC50 in experiment [1] (setting [3]) and in experiment [2] was greater than 10 µM each time.

Take `C[C@H](NC(=O)c1noc(C(C)(C)C)n1)c1ccc(-c2ccnc3[nH]nc(N[C@@H]4CCN(C=O)C4)c23)cc1` [Example 96, 5-tert-butyl-N-[(1S)-1-[4-(3-{[(3R)-1-formylpyrrolidin-3-yl]amino}-1H-pyrazolo[3,4-b]pyridin-4-yl)phenyl]ethyl]-1,2,4-oxadiazole-3-carboxamide]: the IC50 in experiment [1] (setting [3]) is greater than 10 µM; in experiment [2], 9.64 µM.

For the molecule `C[C@@H](NC(=O)c1noc(C(C)(C)C)n1)c1ccc(-c2ccnc3[nH]nc(N[C@@H]4CCN(C=O)C4)c23)cc1` [Example 99, 5-tert-butyl-N-[(1R)-1-[4-(3-{[(3R)-1-formylpyrrolidin-3-yl]amino}-1H-pyrazolo[3,4-b]pyridin-4-yl)phenyl]ethyl]-1,2,4-oxadiazole-3-carboxamide], the IC50 in experiment [1] (method is one of A, B or C, not stated which, read-out: IC50 values against Btk) was less than 0.01 µM; in experiment [1] (setting [3]), 0.00446 µM; in experiment [2], 1.43 µM. Besides, the TEC/Btk in experiment [2] was found to be 321.

Consider `C[C@@H]1[C@H](Nc2n[nH]c3nccc(-c4ccc(CNC(=O)c5noc(C(C)(C)C)n5)c(F)c4)c23)CCCN1C(=O)N1CCCC1` [Example 136, 5-tert-butyl-N-{[2-fluoro-4-(3-{[(2R,3R)-2-methyl-1-(pyrrolidine-1-carbonyl)piperidin-3-yl]amino}-1H-pyraozlo[3,4-b]pyridin-4-yl)phenyl]methyl}-1,2,4-oxadiazole-3-carboxamide], for which the values for the IC50 in experiment [1] (setting [3]) and in experiment [2] were 0.129 µM and 7.93 µM, respectively. In addition, the TEC/Btk in experiment [2] was found to be 61.

Turning to `C[C@@H]1[C@H](Nc2n[nH]c3nccc(-c4ccc(CNC(=O)c5noc(C(C)(C)C)n5)c(F)c4)c23)CCCN1C(=O)NCC(F)(F)F` [Example 137, (2R,3R)-3-{[4-(4-{[(5-tert-butyl-1,2,4-oxadiazol-3-yl)formamido]methyl}-3-fluorophenyl)-1H-pyrazolo[3,4-b]pyridin-3-yl]amino}-2-methyl-N-(2,2,2-trifluoroethyl)piperidine-1-carboxamide], the IC50 in experiment [1] (setting [3]) and in experiment [2] was greater than 10 µM each time.

With `C[C@@H]1[C@H](Nc2n[nH]c3nccc(-c4ccc(CNC(=O)c5noc(C(C)(C)C)n5)c(F)c4)c23)CCCN1C(=O)CC#N` [Example 139, 5-tert-butyl-N-{[4-(3-{[(2R,3R)-1-(2-cyanoacetyl)-2-methylpiperidin-3-yl]amino}-1H-pyrazolo[3,4-b]pyridin-4-yl)-2-fluorophenyl]methyl}-1,2,4-oxadiazole-3-carboxamide], the 50% inhibitory concentration (IC50) in experiment [1] (setting [3]) is 0.0464 µM. In experiment [2], the IC50 amounted to 5.76 µM and the TEC/Btk worked out at 124.

Consider `C[C@@H]1[C@H](Nc2n[nH]c3nccc(-c4ccc(CNC(=O)c5noc(C(C)(C)C)n5)c(F)c4)c23)CCCN1S(=O)(=O)C1CC1` [Example 141, 5-tert-butyl-N-{[4-(3-{[(2R,3R)-1-(cyclopropanesulfonyl)-2-methylpiperidin-3-yl]amino}-1H-pyrazolo[3,4-b]pyridin-4-yl)-2-fluorophenyl]methyl}-1,2,4-oxadiazole-3-carboxamide], for which, in experiment [1] (setting [3]), the IC50 was determined as 0.03 µM. For the same molecule, in experiment [2], the IC50 came out at 3.05 µM and the TEC/Btk is 102.

As to `C[C@@H]1[C@H](Nc2n[nH]c3nccc(-c4ccc(CNC(=O)c5noc(C(C)(C)C)n5)c(F)c4)c23)CCCN1CC#N` [Example 142, 5-tert-butyl-N-{[4-(3-{[(2R,3R)-1-(cyanomethyl)-2-methylpiperidin-3-yl]amino}-1H-pyrazolo[3,4-b]pyridin-4-yl)-2-fluorophenyl]methyl}-1,2,4-oxadiazole-3-carboxamide], in experiment [1] (setting [3]), the IC50 was found to be 0.0212 µM. Also, in experiment [2], 4.17 µM corresponded to half-maximal inhibition (IC50) and the TEC/Btk is 197.

As for `CC(C)(C)c1nc(C(=O)NC2(c3ccc(-c4ccnc5[nH]nc(NC6CCCN(C=O)C6)c45)cc3)CC2)no1` (stereo not drawn) [Example 271, 5-tert-butyl-N-[1-(4-{3-[(1-formylpiperidin-3-yl)amino]-1H-pyrazolo[3,4-b]pyridin-4-yl}phenyl)cyclopropyl]-1,2,4-oxadiazole-3-carboxamide], the IC50 in experiment [1] (setting [3]) is 0.111 µM. Also, in experiment [2], the IC50 was found to be 5.87 µM and the TEC/Btk is given as 053.

On to `CC(C)(C)c1nc(C(=O)NCc2ccc(-c3ccnc4[nH]nc(O[C@@H]5CCN(C=O)C5)c34)cc2F)no1` [Example 273, 5-tert-butyl-N-[(2-fluoro-4-{3-[(1-formylpyrrolidin-3-yl)oxy]-1H-pyrazolo[3,4-b]pyridin-4-yl}phenyl)methyl]-1,2,4-oxadiazole-3-carboxamide], for which the IC50 in experiment [1] (setting [3]) is 0.0038 µM. Also, in experiment [2], the IC50 turned out to be 1.09 µM and the TEC/Btk is listed as 287.

On to `CC(=O)N[C@@H]1CCN(c2n[nH]c3nccc(-c4ccc(CNC(=O)c5ccc(C(C)(C)O)cc5F)c(F)c4)c23)C1` [Example 423, N-[(4-{3-[(3R)-3-acetamidopyrrolidin-1-yl]-1H-pyrazolo[3,4-b]pyridin-4-yl}-2-fluorophenyl)methyl]-2-fluoro-4-(2-hydroxypropan-2-yl)benzamide], for which the half-maximal inhibitory concentration (IC50) in experiment [1] (setting [3]) amounted to 0.0505 µM; in experiment [2], 3.9 µM.
